The conditions of series [1]: cited from earlier work.
The test system of another series is male Sprague-Dawley rats. The following applies: rat, in vivo.
For series [2] the following is noted: cited from earlier work. This is another data set of the same source.
The conditions of series [3]: parenteral, weight basis; cited from earlier work.
Where [4] appears, read: intravenous, single dose of about 0.3 mg.

We go through 3 molecules from patent US20050075361A1 (priority 2002, published 2005).

Read-outs that look alike come from different tables or passages of the source. Where only a bound is given, the exact number is not on record here.

Take `CO[C@@]12CC[C@@]3(C[C@@H]1[C@](C)(O)C(C)(C)C)[C@H]1Cc4ccc(O)c5c4[C@@]3(CCN1CC1CC1)[C@H]2O5.Cl` [Buprenorphine HCl, buprenorphine hydrochloride]: in series [1] (single intramuscular or intravenous dose of 0.2 to 0.3 mg or 2 to 4 μg/kg), the “mean duration of analgesia” value is “six”. Moreover, in the series on male Sprague-Dawley rats, the Analgesic duration was found to be 5 h and the “duration of analgesic action” value was in the range of 3 to 5 h.

In the case of `CO[C@@]12CCC3(C[C@@H]1C(C)(O)C(C)(C)C)[C@H]1Cc4ccc(O)c5c4[C@@]3(CCN1CC1CC1)[C@H]2O5` (stereo partly drawn) [Buprenorphine base, (5α,7α(S)-17-cyclopropyl-methyl)-α-(1,1-dimethylethyl)-4,5-epoxy-18,19-dihydro-3-hydroxy-6-methoxy-α-methyl-6,14-ethenomorphinan-7-methanol], in the series with male Sprague-Dawley rats, the Analgesic duration is on record as 48; 48; 50 h and the “duration of analgesic action” value lay in the range of 48 to 50 h. For the same molecule, in the series with male Sprague-Dawley rats (sc), the Analgesic duration is reported as 48; 50; 48 h and the duration of action was 48 to 50 h.

In the case of `CO[C@@]12CCC3(C[C@@H]1C(C)(O)C(C)(C)C)[C@H]1Cc4ccc(O)c5c4[C@@]3(CCN1CC1CC1)[C@H]2O5` (stereo partly drawn) [Buprenorphine, (5α,7α(S)-17-cyclopropyl-methyl)-α-(1,1-dimethylethyl)-4,5-epoxy-18,19-dihydro-3-hydroxy-6-methoxy-α-methyl-6,14-ethenomorphinan-7-methanol], the duration of action in series [1] (intramuscular or intravenous injection) was 6 to 8 h. Besides, in series [2] (0.4 mg sublingual dose), the highest concentration (Cmax) (usually the maximum level reached in the sampled fluid or tissue) is 0.5 ± 0.06 ng/mL, the Tmax (usually the time from dosing to the highest level) was 3.5 ± 0.667 h and the systemic availability was 57.7±6%. Moreover, the Total plasma clearance result in series [2] (conscious postoperative patients) is given as “approximately 0.28 L/minute”. Also, the “mean peak plasma buprenorphine concentration” value in series [2] (intramuscular second 0.3-mg dose 3 hours after initial intravenous dose) is reported as “about 3.6 ng/mL”. In series [2] (intramuscular second 0.3-mg dose, after about 3 hours), the plasma concentration result is reported as “about 0.4 ng/mL”. For the same molecule, the plasma concentration result in series [2] (intravenous about 0.3 mg, after about 5 minutes) was “about 9 ng/mL”. Also, the plasma concentration result in series [2] (intravenous about 0.3 mg, after about 3 hours) is “about 0.4 ng/mL”. Also, in series [2] (setting [4]), the “mean peak plasma drug concentration” value is “about 18 ng/mL” and the “time of peak plasma concentration” value was not above 2 min. Further, in series [3], the “analgesic potency relative to meperidine” value is “about 600 times” and the “analgesic potency relative to pentazocine” value was “about 200 times”.
